Calls of active or inactive are those of the source. The rule behind the calls is not given here.
Key:
SMMC-7721 [1] = assay: Induction of apoptosis in human SMMC-7721 cells assessed as increase in PARP-1 level t 1 to 20 uM incubated for 48 hrs by Western blot analysis; assay type: functional, cell-based; conditions: dose 1-20 µM
SMMC-7721 [2] = assay: Anticancer activity against human SMMC-7721 cells assessed as inhibition of cell proliferation at 1 uM measured after 72 hrs by MTT assay; assay type: functional
SMMC-7721 [3] = assay: Induction of apoptosis in human SMMC-7721 cells assessed as increase in caspase 3 level upto 20 uM incubated for 48 hrs by Western blot analysis; assay type: functional, cell-based; conditions: dose microM <=20, time 48.0 hrs
SMMC-7721 [4] = assay: Induction of cell cycle arrest in human SMMC-7721 cells assessed as accumulation of cells at […] measured after 24 hrs by flow cytometry; assay type: functional, cell-based
SMMC-7721 [5] = assay: Antimigratory activity against human SMMC-7721 cells assessed as inhibition of cell migration at 10 uM measured after 12 hrs by cell scratch assay; assay type: functional, cell-based
SMMC-7721 [6] = assay: Anticancer activity against human SMMC-7721 cells assessed as inhibition of cell proliferation at 10 uM measured after 72 hrs by MTT assay; assay type: functional
SMMC-7721 [7] = assay: Antimigratory activity against human SMMC-7721 cells assessed as inhibition of cell migration measured after 12 hrs by cell scratch assay; assay type: functional, cell-based
SMMC-7721 [8] = assay: Anticancer activity against human SMMC-7721 cells assessed as inhibition of cell proliferation measured after 72 hrs by MTT assay; assay type: functional, cell-based; conditions: SMMC-7721, 72 h
SMMC-7721 [9] = assay: Induction of cell cycle arrest in human SMMC-7721 cells assessed as accumulation of cells at G2/M measured after 24 hrs by flow cytometry; assay type: functional, cell-based
SMMC-7721 [10] = assay: Cytotoxicity against human SMMC-7721 cells assessed as change in cell morphology at 1 uM incubated for 24 hrs; assay type: functional, cell-based
SMMC-7721 [11] = assay: Cytotoxicity against human SMMC-7721 cells assessed as change in cell morphology at 10 uM incubated for 48 hrs; assay type: functional, cell-based
SMMC-7721 [12] = assay: Induction of apoptosis in human SMMC-7721 cells as late apoptotic cells at 20 uM measured after 48 hrs by annexin V-FITC/PI based flow cytometric analysis relative to control; assay type: functional
SMMC-7721 [13] = assay: Induction of apoptosis in human SMMC-7721 cells at 5 uM measured after 48 hrs by annexin V-FITC/PI based flow cytometric analysis relative to control; assay type: functional
SMMC-7721 [14] = assay: Induction of apoptosis in human SMMC-7721 cells assessed as decrease in PARP-1 level t 10 to 20 uM incubated for 48 hrs by Western blot analysis; assay type: functional, cell-based; conditions: dose 10-20 µM
SMMC-7721 [15] = assay: Induction of apoptosis in human SMMC-7721 cells at 1 uM measured after 48 hrs by annexin V-FITC/PI based flow cytometric analysis relative to control; assay type: functional
SMMC-7721 [16] = assay: Induction of apoptosis in human SMMC-7721 cells assessed as increase in PARP-1 level t 1 to 5 uM incubated for 48 hrs by Western blot analysis; assay type: functional, cell-based; conditions: dose 1-5 µM
SMMC-7721 [17] = assay: Induction of apoptosis in human SMMC-7721 cells as late apoptotic cells at 5 uM measured after 48 hrs by annexin V-FITC/PI based flow cytometric analysis relative to control; assay type: functional

Row | Compound | inhibition at 1 µM (SMMC-7721 [2]) [%] | inhibition at 10 µM (SMMC-7721 [6]) [%] | other results
1 | Clc1ccc(COc2ccccc2/C=C/C(/C=C/c2ccccn2)=N/Oc2ncnc3ccccc23)c(Cl)c1 | 33.3 | 87.5 | Activity (SMMC-7721 [1]): Active; Activity (SMMC-7721 [3]): Active; Activity (SMMC-7721 [4]): Active; Activity (SMMC-7721 [5]): inactive; Activity (SMMC-7721 [7]): inactive; IC50 (SMMC-7721 [8]): 8.55 µM
2 | Clc1ccc(COc2ccc(/C=C/C(/C=C/c3ccccn3)=N/Oc3ncnc4cc(Cl)ccc34)cc2)cc1 | 67.4 | 88.1 | Activity (SMMC-7721 [9]): Active; Activity (SMMC-7721 [1]): Active; Activity (SMMC-7721 [3]): Active; Activity (SMMC-7721 [10]): Active; Activity (SMMC-7721 [11]): Active; Activity (SMMC-7721 [12]): 88%; Activity (SMMC-7721 [5]): inactive; Activity (SMMC-7721 [7]): inactive; IC50 (SMMC-7721 [8]): 0.63 µM
3 | Clc1ccc(COc2ccc(/C=C/C(/C=C/c3cccs3)=N/Oc3ncnc4ccccc34)cc2)cc1 | 89.3 | 97.5 | –
4 | Clc1ccccc1COc1ccccc1/C=C/C(/C=C/c1ccccn1)=N/Oc1ncnc2ccccc12 | 95.7 | 96 | –
5 | Clc1ccc(COc2ccc(/C=C/C(/C=C/c3ccccn3)=N/Oc3ncnc4ccccc34)cc2)c(Cl)c1 | – | 89.6 | –
6 | Cc1cccc2ncnc(O/N=C(\C=C\c3ccccn3)/C=C/c3ccccc3OCc3ccc(Cl)cc3Cl)c12 | 90.8 | 93.9 | –
7 | Clc1ccc(COc2ccc(/C=C/C(/C=C/c3ccccn3)=N/Oc3ncnc4cc(Cl)ccc34)cc2)c(Cl)c1 | – | 23.6 | –
8 | Nc1ccn([C@@H]2O[C@H](CO)[C@@H](O)C2(F)F)c(=O)n1 [GEMCITABINE] | 38.5 | 61.5 | IC50 (SMMC-7721 [8]): 1.4 µM
9 | Clc1ccc2c(O/N=C(\C=C\c3ccccn3)/C=C/c3ccccc3OCc3ccccc3Cl)ncnc2c1 | 94.8 | 94.5 | –
10 | Clc1ccc2c(O/N=C(/C=C/c3ccc(OCc4ccccc4Cl)cc3)\C=C\c3ccccn3)ncnc2c1 | 18.1 | 84.7 | –
11 | Fc1ccccc1COc1ccccc1/C=C/C(/C=C/c1ccccn1)=N/Oc1ncnc2cc(Cl)ccc12 | 94.2 | 94.8 | Activity (SMMC-7721 [10]): Active; Activity (SMMC-7721 [11]): Active
12 | Clc1ccc(COc2ccccc2/C=C/C(/C=C/c2ccccn2)=N/Oc2ncnc3cc(Cl)ccc23)cc1 | 94 | 94.8 | –
13 | Clc1ccc(COc2ccccc2/C=C/C(/C=C/c2ccccn2)=N/Oc2ncnc3cc(Cl)ccc23)c(Cl)c1 | 23.6 | 91.8 | Activity (SMMC-7721 [9]): Active; Activity (SMMC-7721 [3]): Active; Activity (SMMC-7721 [5]): inactive; Activity (SMMC-7721 [7]): inactive; IC50 (SMMC-7721 [8]): 10.4 µM
14 | Cc1cccc2ncnc(O/N=C(\C=C\c3ccccn3)/C=C/c3ccccc3OCc3ccccc3Cl)c12 | 86.8 | 95.7 | –
15 | Fc1ccccc1COc1ccc(/C=C/C(/C=C/c2ccccn2)=N/Oc2ncnc3cc(Cl)ccc23)cc1 | 81.1 | 91.2 | –
16 | Cc1cccc2ncnc(O/N=C(\C=C\c3ccccn3)/C=C/c3ccccc3OCc3ccc(Cl)cc3)c12 | 93.4 | 94.5 | –
17 | Cc1cccc(COc2ccc(/C=C/C(/C=C/c3ccccn3)=N/Oc3ncnc4cccc(C)c34)cc2)c1 | 93.4 | 97 | –
18 | Cc1cccc2ncnc(O/N=C(/C=C/c3ccc(OCc4ccccc4Cl)cc3)\C=C\c3ccccn3)c12 | 77 | 84.7 | –
19 | Clc1ccccc1COc1ccc(/C=C/C(/C=C/c2ccccn2)=N/Oc2ncnc3ccccc23)cc1 | 10.1 | 96.9 | –
20 | Clc1ccc(COc2ccc(/C=C/C(/C=C/c3ccccn3)=N/Oc3ncnc4ccccc34)cc2)cc1 | 91.2 | 94.4 | –
21 | Cc1cccc(COc2ccc(/C=C/C(/C=C/c3ccccn3)=N/Oc3ncnc4ccccc34)cc2)c1 | 69.2 | 97.5 | Activity (SMMC-7721 [13]): 99.9%; Activity (SMMC-7721 [14]): Active; Activity (SMMC-7721 [9]): Active; Activity (SMMC-7721 [3]): Active; Activity (SMMC-7721 [10]): Active; Activity (SMMC-7721 [11]): Active; Activity (SMMC-7721 [15]): 23%; Activity (SMMC-7721 [16]): Active; Activity (SMMC-7721 [17]): 99.4%; Activity (SMMC-7721 [5]): inactive; Activity (SMMC-7721 [7]): inactive; IC50 (SMMC-7721 [8]): 0.64 µM
22 | Cc1cccc(COc2ccc(/C=C/C(/C=C/c3ccccn3)=N/Oc3ncnc4cc(Cl)ccc34)cc2)c1 | 78.6 | 95.6 | –

From ChEMBL document CHEMBL4680350, “Novel penta-1,4-diene-3-one derivatives containing quinazoline and oxime ether fragments: Design, synthesis and bioactivity” (Bioorg Med Chem, 2021)
